Assay results: patent US5464617A, “β-lactam compounds” (Hoffmann-La Roche Inc., priority 1994, dated 1995)
In brackets after ≈: the same amount, converted by molar mass. Where a name gives a salt, the structure may show the parent alone.

Columns and labels:
[1] = system: Citrobacter freundii 1982; test: MIC in vitro of a 1:4 combination of ceftriaxone with a compound of formula I (Test D); type: cell-based; details: for MIC C. freundii 1982 (D): test D; for MIC C. freundii 1982: Table 2
Description: The minimum inhibitory concentration in vitro ([…]) of a 1:4 combination of ceftriaxone with a compound of formula I against Citrobacter freundii 1982 was measured and compiled in Table 2 hereinafter.

E. coli 1346 = test: Antibacterial activity of the products per se, serial dilution method in liquid medium (Test E); type: cell-based; details: product per se; for MIC E. coli 1346 (E): test E; for MIC E. coli 1346: Table 3, liquid medium
Excerpt: The antibacterial activity of the products per se is illustrated on the basis of Table 3 hereinafter, the minimum inhibitory concentration […] in vitro against E. coli 1346 being determined using the serial dilution method in liquid medium: […]

[2] = Table 4, 1:4 combination of ceftriaxone with the compound
[3] = Table 5, particularly preferred products, 1:4 combination with ceftriaxone
[4] = Table 5, particularly preferred products
[5] = 1:4 combination of ceftriaxone with the compound

Structure (SMILES)	MIC C. freundii 1982 (D) [1, 2] [µg/mL]	MIC E. coli 1346 (E) (E. coli 1346; Table 4) [µg/mL]	further results
C=CC1=C(C(=O)O)N2C(=O)[C@@H]3[C@H]2[C@H](C1)CN3C(=O)Nc1ccc(C(N)=O)cc1 [46(b), (1aS,3aR,6bR)-2-(4-Carbamoyl-phenylcarbamoyl)-1-oxo-5-vinyl-1a,2,3,3a,4,6b-hexahydro-1H-2,6a-diazacyclobut[cd]indene-6-carboxylic acid sodium salt]	0.5	> 32	–
Cn1nnnc1SCC1=C(C(=O)O)N2C(=O)[C@@H]3[C@H]2[C@H](C1)CN3C=O [Example 19(k), (1aS,3aR,6bR)-2-Formyl-5-(1-methyl-1H-tetrazol-5-ylsulphanylmethyl)-1-oxo-1a,2,3,3a,4,6b-hexahydro-1H-2,6a-diazacyclobut[cd]indene-6-carboxylic acid sodium salt]	0.25	0.5	–
O=C(O)C1=C(CSc2ccnc3c2CCC3)S[C@@H]2CN(C(=O)Nc3ccc(O)cc3)[C@@H]3C(=O)N1[C@@H]32 [41(a), (1aS,3aR,6bS)-2-(4-Hydroxy-phenylcarbamoyl)-5-(6,7-dihydro-5H-1-pyrindin-4-ylsulphanylmethyl)-1-oxo-4-thia-1,1a,2,3,3a,6b-hexahydro-2,6a-diazacyclobut[cd]indene-6-carboxylic acid sodium salt]	2	> 32	–
Cn1nnnc1SCC1=C(C(=O)O)N2C(=O)[C@@H]3[C@H]2[C@H](C1)CN3S(C)(=O)=O [Example 19(e), (1aS,3aR,6bR)-2-Methylsulphonyl-5-(1-methyl-1H-tetrazol-5-ylsulphanylmethyl)-1-oxo-1a,2,3,3a,4,6b-hexahydro-1H-2,6a-diazacyclobut[cd]indene-6-carboxylic acid sodium salt]	–	–	MIC C. freundii 1982 (D) [1, 3]: 0.25 µg/mL; MIC E. coli 1346 (E) (E. coli 1346; [4]): 1 µg/mL
CC(=O)N1C[C@H]2CC(CSc3nnnn3CC(=O)NCCc3ccccc3)=C(C(=O)O)N3C(=O)[C@@H]1[C@@H]23 [80(a), (1aS,3aR,6bR)-2-Acetyl-1-oxo-5-[1-(phenethylcarbamoylmethyl)-1H-tetrazol-5-ylsulphanylmethyl]-1a,2,3,3a,4,6b-hexahydro-1H-2,6a-diazacyclobut[cd]indene-6-carboxylic acid sodium salt]	4	0.5	–
CS(=O)(=O)OC1=C(C(=O)O)N2C(=O)[C@@H]3[C@H]2[C@H](C1)CN3C(=O)NC1CCSC1=O (mixture of isomers) [9(f), (1aS,3aR,6bR)-5-Methylsulphonyloxy-1-oxo-2-[(R) and [(S)-2-oxo-tetrahydro-thien-3-ylcarbamoyl]-1a,2,3,3a,4,6b-hexahydro-1H-2,6a-diazacyclobut[cd]indene-6-carboxylic acid sodium salt]	–	–	MIC C. freundii 1982 [1, 5]: 0.12 µg/mL; MIC E. coli 1346 (E. coli 1346): 32 µg/mL
N#CCC(=O)N1C[C@H]2CC(Sc3nnc(N)s3)=C(C(=O)O)N3C(=O)[C@@H]1[C@@H]23 [3(ag), (1aS,3aR,6bR)-5-(5-Amino-1,3,4-thiadiazol-2-ylsulphanyl)-2-cyanoacetyl-1-oxo-1a,2,3,3a,4,6b-hexahydro-1H-2,6a-diazacyclobut[cd]indene-6-carboxylic acid sodium salt]	2	8	–
NC(=O)OCC1=C(C(=O)O)N2C(=O)[C@@H]3[C@H]2[C@H](C1)CN3C(=O)CSc1nnc(N)s1 [58(f), (1aS,3aR,6bR)-2-(5-Amino-1,3,4-thiadiazol-2-ylsulphanylacetyl)-5-carbamoyloxymethyl-1-oxo-1a,2,3,3a,4,6b-hexahydro-1H-2,6a-diazacyclobut[cd]indene-6-carboxylic acid sodium salt]	0.12	8	–
CC(=O)N1C[C@H]2CC(COC(=O)NCC(F)(F)F)=C(C(=O)O)N3C(=O)[C@@H]1[C@@H]23 [92(a), (1aS,3aR,6bR)-2-Acetyl-1-oxo-5-(2,2,2-trifluoroethylcarbamoyloxymethyl)-1a,2,3,3a,4,6b-hexahydro-1H-2,6a-diazacyclobut[cd]indene-6-carboxylic acid sodium salt]	2	4	–
Cc1nnc(SC2=C(C(=O)O)N3C(=O)[C@@H]4[C@H]3[C@H](C2)CN4C(=O)C(F)(F)F)s1 [Example 3(ad), (1aS,3aR,6bR)-5-(5-Methyl-1,3,4-thiadiazol-2-ylsulphanyl)-1-oxo-2-trifluoracetyl-1a,2,3,3a,4,6b-hexahydro-1H-2,6a-diazacyclobut[cd]indene-6-carboxylic acid sodium salt]	8	16	–
NC(=O)Cn1nnnc1SCC1=C(C(=O)O)N2C(=O)[C@@H]3[C@H]2[C@H](C1)CN3C=O [70(c), (1aS,3aR,6bR)-5-(1-Carbamoylmethyl-1H-tetrazol-5-ylsulphanylmethyl)-2-formyl-1-oxo-1a,2,3,3a,4,6b-hexahydro-1H-2,6a-diazacyclobut[cd]indene-6-carboxylic acid sodium salt]	–	–	MIC C. freundii 1982 (D) [1, 3]: 0.25 µg/mL; MIC E. coli 1346 (E) (E. coli 1346; [4]): 1 µg/mL
CC(=O)N1C[C@H]2CC(CSc3nnnn3CC(N)=O)=C(C(=O)O)N3C(=O)[C@@H]1[C@@H]23 [70(a), (1aS,3aR,6bR)-2-Acetyl-5-(1-carbamoylmethyl-1H-tetrazol-5-ylsulphanylmethyl)-1-oxo-1a,2,3,3a,4,6b-hexahydro-1H-2,6a-diazacyclobut[cd]indene-6-carboxylic acid sodium salt]	–	–	MIC C. freundii 1982 (D) [1, 3]: 0.5 µg/mL; MIC E. coli 1346 (E) (E. coli 1346; [4]): 1 µg/mL
O=C([O-])C[n+]1ccc(SCC2=C(C(=O)O)N3C(=O)[C@@H]4[C@H]3[C@H](C2)CN4C(=O)C(F)(F)F)cc1 [Example 52(b), (1aS,3aR,6bR)-[4-(2-Trifluoroacetyl-6-carboxy-1-oxo-1a,2,3,3a,4,6b-hexahydro-1H-2,6a-diazacyclobut[cd]inden-5-ylmethylsulphanyl)-pyridin-1-ylio]-acetate sodium salt]	1	2	–
Cn1nnnc1SC1=C(C(=O)O)N2C(=O)[C@@H]3[C@H]2[C@H](C1)CN3C(=O)NCc1cccs1 [3(d), (1aS,3aR,6bR)-5-(1-Methyl-1H-tetrazol-5-ylsulphanyl)-1-oxo-2-(thien-2-ylmethylcarbamoyl)-1a,2,3,3a,4,6b-hexahydro-1H-2,6a-diazacyclobut[cd]indene-6-carboxylic acid sodium salt]	–	–	MIC C. freundii 1982 [1, 5]: 1 µg/mL; MIC E. coli 1346 (E. coli 1346): 32 µg/mL
Cc1nnc(SCC2=C(C(=O)O)N3C(=O)[C@H]4NC[C@@H](S2)[C@H]43)s1 [40(h), (1aS,3aR,6bS)-5-[5-Methyl-1,3,4-thiadiazol-2-ylsulphanylmethyl]-1-oxo-4-thia-1,1a,2,3,3a,6b-hexahydro-2,6a-diazacyclobut[cd]indene-6-carboxylic acid]	0.5	8 (≈ 22.4 µM)	–
CCN1C[C@H]2CC(COC(N)=O)=C(C(=O)O)N3C(=O)[C@@H]1[C@@H]23 [59(c), (1aS,3aR,6bR)-5-Carbamoyloxylmethyl-2-ethyl-1-oxo-1a,2,3,3a,4,6b-hexahydro-1H-2,6a-diazacyclobut[cd]indene-6-carboxylic acid sodium salt]	2	8	–
O=C([O-])Cc1ccc[n+](CC2=C(C(=O)O)N3C(=O)[C@@H]4[C@H]3[C@H](C2)CN4C(=O)Nc2ccc(O)cc2)c1 [57(b), (1aS,3aR,6bR)-[1-[6-Carboxy-2-(4-hydroxy-phenylcarbamoyl)-1-oxo-1a,2,3,3a,4,6b-hexahydro-1H-2,6a-diazacyclobut[cd]inden-5-ylmethyl]-pyridin-3-ylio]-acetate]	0.25	> 32	–
Cc1nnc(SCC2=C(C(=O)O)N3C(=O)[C@@H]4[C@H]3[C@@H](CN4C(=O)Nc3ccc(C(N)=O)cc3)O2)s1 [31(b), (1aS,3aR,6bS)-2-(4-Carbamoyl-phenylcarbamoyl)-5-(S-methyl-1,3,4-thiadiazol-2-ylsulphanylmethyl)-1-oxo-1,1a,2,3,3a,6b-hexahydro-4-oxa-2,6a-diazacyclobut[cd]indene-6-carboxylic acid sodium salt]	0.2	8	–
Cn1nnnc1SC1=C(C(=O)O)N2C(=O)[C@@H]3[C@H]2[C@H](C1)CN3C(=O)NCc1ccc(O)c(O)c1 [3(e), (1aS,3aR,6bR)-2-(3,4-Dihydroxy-benzylcarbamoyl)-5-(1-methyl-1H-tetrazol-5-ylsulphanyl)-1-oxo-1a,2,3,3a,4,6b-hexahydro-1H-2,6a-diazacyclobut[cd]indene-6-carboxylic acid salt]	–	–	MIC C. freundii 1982 [1, 5]: 2 µg/mL; MIC E. coli 1346 (E. coli 1346): 32 µg/mL
Cn1nnnc1SCC1=C(C(=O)O)N2C(=O)[C@@H]3[C@H]2[C@H](C1)CN3CC(=O)Nc1ccc(O)cc1 [61(b), (1aS,3aR,6bR)-2-(4-Hydroxy-phenylcarbamoylmethyl)-5-(1-methyl-1H-tetrazol-5-ylsulphanylmethyl)-1-oxo-1a,2,3,3a,4,6b-hexahydro-1H-2,6a-diazacyclobut[cd]indene-6-carboxylic acid sodium salt]	2	16	–
C=CC1=C(C(=O)O)N2C(=O)[C@@H]3[C@H]2[C@H](C1)CN3C(C)=O [Example 47, (1aS,3aR, 6bR)-2-Acetyl-1-oxo-5-vinyl-1a,2,3,3a,4,6b-hexahydro-1H-2,6a-diazacyclobut[cd]indene-6-carboxylic acid sodium salt]	4	8	–
